These results are taken from ChEMBL document CHEMBL1201862, “PubChem BioAssay data set” (2004).

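Results reflect a 48-hour exposure of cells in 96-well plates to compound at five concentrations. GI50: concentration for 50% inhibition of growth.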 Activity calls are given as the source filed them. Rule as the data show it: active = GI50 up to about 1.1 µM and inactive = higher.

What all share (experiment): inhibition of tumour cell growth, NCI panel, 48 h
For assay [1], the system named is A498.
In assay [2] the test system is BT-549.
Assay [3] concerns HCT-116.
For assay [4], the system named is HCT-15.
The test system of assay [5] is HL-60.
The test system of assay [6] is HOP-62.
For assay [7], the system named is M14.
In assay [8] the test system is MCF7.
Assay [9] has as its system MDA-MB-435.
Assay [10] has as its system MOLT-4.
For assay [11], the system named is Malme-3M.
The test system of assay [12] is NCI-H460.
Assay [13] concerns SF-268.
Assay [14] deals with SK-MEL-28.
For assay [15], the system named is SK-MEL-5.
Assay [16] concerns SK-OV-3.
Assay [17] concerns SNB-19.
Assay [18] has as its system SNB-75.
Assay [19] concerns SR.
Assay [20] relates to T47D.

Consider `Cc1nc2ccccc2n1CCc1nc2ccccc2[nH]1`, for which the GI50 in assay [1] was > 100 µM (inactive); in [2] it was > 100 µM (inactive); in assay [3], > 100 µM (inactive); in assay [4] it was greater than 100 µM; in assay [5], > 100 µM (inactive); in [6], > 100 µM (inactive). Further, the GI50 in assay [7], in [8], in assay [9], in assay [10], in assay [11] and in assay [12] was > 100 µM (inactive) in each case. Moreover, the GI50 in assay [13], in [14], in [15], in [16], in assay [17] and in [18] was > 100 µM (inactive) throughout. The GI50 in assay [19] and in [20] was > 100 µM (inactive) each time.

Consider `C/C=C/C=C\C=C/C(O)C(C)C(CCC(C)C1OC(=O)C=CC1C)OP(=O)(O)O` (stereo not given), for which the GI50 in assay [1] is 0.22 µM (active); in [2], 0.224 µM (active); in [3] it was 0.251 µM (active); in assay [4], 0.445 µM; in [5] it was 0.0425 µM (active); in assay [6] it was 0.303 µM (active). The GI50 is 0.229 µM (active) in [7]; 0.272 µM (active) in [8]; 0.133 µM (active) in assay [9]; 0.275 µM (active) in [10]; 0.232 µM (active) in assay [11]; 0.4 µM (active) in assay [12]. Also, the GI50 in [13] is 0.59 µM (active); in assay [14] it was 0.804 µM (active); in assay [15], 0.658 µM (active); in assay [16], 0.502 µM (active); in assay [17], 0.562 µM (active); in [18], 0.986 µM (active). Besides, the GI50 is 0.176 µM (active) in assay [19] and 0.386 µM (active) in [20].

In the case of `CC1c2cc(c3c(c2O)CN([C@@H](C)C2CCCCC2)CO3)C(C)c2cc(c3c(c2O)CN([C@@H](C)C2CCCCC2)CO3)C(C)c2cc(c3c(c2O)CN([C@@H](C)C2CCCCC2)CO3)C(C)c2cc1c1c(c2O)CN([C@@H](C)C2CCCCC2)CO1` (stereo not given in full), the GI50 is 2.06 µM (inactive) in assay [1]; 1.77 µM (inactive) in [2]; 1.06 µM (active) in assay [3]; 1.51 µM in assay [4]; 0.152 µM (active) in assay [5]; 1.97 µM (inactive) in assay [6]. The GI50 was 2.3 µM (inactive) in [7]; 1.36 µM (inactive) in assay [8]; 1.8 µM (inactive) in [9]; 1.34 µM (inactive) in [10]; 1.45 µM (inactive) in assay [11]; 1.28 µM (inactive) in [12]. Also, the GI50 was 1.33 µM (inactive) in assay [13]; 1.76 µM (inactive) in assay [14]; 1.84 µM (inactive) in assay [15]; 1.48 µM (inactive) in assay [16]; 1.61 µM (inactive) in assay [17]; 1.22 µM (inactive) in assay [18]. Besides, the results for the GI50 in assay [19] and in assay [20] were 0.197 µM (active) and 1.56 µM (inactive), respectively.

Take `COc1cc2nc(-c3cccs3)oc(=O)c2cc1OC`: the GI50 in assay [1] was > 100 µM (inactive); in assay [2] it was 42 µM (inactive); in [3] it was 86.5 µM (inactive); in assay [4] it was greater than 100 µM; in assay [5], > 100 µM (inactive); in [6], 17.6 µM (inactive). Besides, the GI50 in assay [7], in assay [8], in assay [9], in assay [10], in [11] and in [12] was > 100 µM (inactive) in each case. For the same molecule, the GI50 in assay [13] is 61.7 µM (inactive); in [14] it was > 100 µM (inactive); in [15], > 100 µM (inactive); in [16] it was > 100 µM (inactive); in assay [17], 47.3 µM (inactive); in [18] it was > 100 µM (inactive). Besides, the GI50 in assay [19] and in assay [20] was > 100 µM (inactive) each time.

Turning to `O=[N+]([O-])c1nccn1CCCNc1ccnc2cc(Cl)ccc12`, the GI50 in [1] is 5.08 µM (inactive); in assay [2], 8.69 µM (inactive); in assay [3] it was 3.47 µM (inactive); in [4] it was 19.8 µM; in assay [5], 5 µM (inactive); in assay [6], 25.5 µM (inactive). Besides, the GI50 in assay [7] was 4.5 µM (inactive); in [8], 50 µM (inactive); in assay [9], 6.71 µM (inactive); in assay [10], 3.64 µM (inactive); in [11], 29 µM (inactive); in [12] it was 3.12 µM (inactive). The GI50 was 7.48 µM (inactive) in assay [13]; > 9.86 µM (inactive) in assay [14]; 2.29 µM (inactive) in [15]; 6.49 µM (inactive) in [16]; 4.06 µM (inactive) in [17]; 6.62 µM (inactive) in [18]. Besides, the GI50 was 2.81 µM (inactive) in [19] and 7.67 µM (inactive) in assay [20].

Regarding `CON(C)C(=O)C(Cc1ccccc1)NC(=O)OC(C)(C)C` (stereo not given), the GI50 in assay [1] is > 100 µM (inactive); in [2], > 100 µM (inactive); in assay [3], > 100 µM (inactive); in assay [4], greater than 100 µM; in assay [5] it was > 100 µM (inactive); in assay [6], > 100 µM (inactive). Moreover, the GI50 in [7], in assay [8], in assay [9], in assay [10], in assay [11] and in assay [12] was > 100 µM (inactive) throughout. Also, the GI50 in assay [13], in [14], in assay [15], in assay [16], in assay [17] and in assay [18] was > 100 µM (inactive) each time. For the same molecule, the GI50 in [19] and in [20] was > 100 µM (inactive) throughout.

Turning to `Nc1c2c(nc3cc(F)c(F)cc13)CCC2`, the GI50 in [1] is 24.7 µM (inactive); in [2], > 100 µM (inactive); in assay [3], 38 µM (inactive); in assay [4], 45.4 µM; in assay [5] it was 2.82 µM (inactive); in assay [6] it was > 100 µM (inactive). Further, the GI50 is 61.5 µM (inactive) in assay [7]; 33.3 µM (inactive) in assay [8]; 54 µM (inactive) in assay [9]; 30.5 µM (inactive) in assay [10]; 41.7 µM (inactive) in assay [11]; 22.1 µM (inactive) in assay [12]. The GI50 in [13] is 58.5 µM (inactive); in assay [14] it was 52.7 µM (inactive); in assay [15] it was 42.7 µM (inactive); in assay [16], 62.1 µM (inactive); in assay [17], 48.6 µM (inactive); in [18], 42.5 µM (inactive). Further, the GI50 in assay [19] is 24.2 µM (inactive); in assay [20], 96.6 µM (inactive).

For the molecule `N=C(N)NS(=O)(=O)c1ccc(NCc2c3ccccc3nc3ccccc23)cc1`, the GI50 is 1.17 µM (inactive) in assay [1]; 7.16 µM (inactive) in [2]; 3.01 µM (inactive) in assay [3]; 40.3 µM in assay [4]; 0.0679 µM (active) in [5]; 0.678 µM (active) in [6]. The GI50 is 4.67 µM (inactive) in assay [7]; 0.0566 µM (active) in assay [8]; 32.6 µM (inactive) in assay [9]; 0.0308 µM (active) in assay [10]; 4.75 µM (inactive) in assay [11]; 0.0371 µM (active) in assay [12]. For the same molecule, the GI50 in assay [13] was 0.679 µM (active); in assay [14], 47.3 µM (inactive); in assay [15] it was 2.62 µM (inactive); in assay [16], 2.73 µM (inactive); in assay [17] it was 0.711 µM (active); in [18] it was 0.608 µM (active). The GI50 is 0.0363 µM (active) in assay [19] and 1.16 µM (inactive) in assay [20].

In the case of `Nc1ncnc2c1nc(Cl)n2[C@@H]1O[C@@H]2COP(=O)(O)O[C@H]2[C@H]1O` [TOCLADESINE], the GI50 is 67.6 µM (inactive) in assay [1]; 5.69 µM (inactive) in assay [2]; 3.01 µM (inactive) in assay [3]; 6.7 µM in assay [4]; 3.61 µM (inactive) in [5]; 19.5 µM (inactive) in assay [6]. Besides, the GI50 is 8.02 µM (inactive) in [7]; 8.11 µM (inactive) in assay [8]; 5.41 µM (inactive) in [9]; 7 µM (inactive) in [10]; 152 µM (inactive) in [11]; 7.03 µM (inactive) in assay [12]. Also, the GI50 was 32 µM (inactive) in assay [13]; 295 µM (inactive) in assay [14]; 152 µM (inactive) in assay [15]; 10.6 µM (inactive) in [16]; 122 µM (inactive) in [17]; 31.8 µM (inactive) in assay [18]. Also, the GI50 is 4.7 µM (inactive) in [19] and 14.7 µM (inactive) in [20].

For `C=C1C(=O)OC2C1C(OC(=O)/C(C)=C/C)CC(O)(CCl)C1C(O)C=C(C)C21O` (stereo not given), the GI50 in assay [1] was 23.6 µM (inactive); in [2], 9.48 µM (inactive); in assay [3], 6.28 µM (inactive); in assay [4] it was 3.72 µM; in assay [5], 2.28 µM (inactive); in [6] it was > 46.1 µM (inactive). Besides, the GI50 was 11.4 µM (inactive) in assay [7]; 4.52 µM (inactive) in assay [8]; 23 µM (inactive) in assay [9]; 3.92 µM (inactive) in assay [10]; 2.22 µM (inactive) in assay [11]; 16.7 µM (inactive) in assay [12]. Besides, the GI50 is 22.9 µM (inactive) in assay [13]; 13.3 µM (inactive) in assay [14]; 11 µM (inactive) in assay [15]; 47.9 µM (inactive) in assay [16]; > 43.8 µM (inactive) in assay [17]; 27.5 µM (inactive) in assay [18]. The GI50 in assay [19] was 3.94 µM (inactive); in [20], 11.9 µM (inactive).
